This assay relates to TPc9.1 T hybridoma with CH27 antigen presenting cells. Description: T hybridoma response assay (APC + T hybridoma, HT-2 [3H]TdR uptake readout). The format is cell-based, murine. The settings on record: for EC50: serial 1:4 dilutions from 3 μM, 24 hr stimulation. The method, then: Biological Activities of Hybrid Peptides [00103) The biological activities of the series of peptides listed in Table I were determined with the T hybridoma response assay. A T cell hybridoma which is specific to the hornworm moth cytochrome C epitope IAYLKQATAK (SEQ ID NO: 8) was stimulated with that antigenic peptide or with members of the series of hybrids of the antigenic peptide and the core Ii-Key sequence listed in Table I. The hybrids were joined with spacers of various lengths. The spacers contained either amino acids in the natural sequence of the Ii protein, or methylene (—CH2—) groups of 5-amino-n-valeric acid (ava; 5-aminopentanoic acid). Cultures of an antigen presenting cell and T cell hybridoma were incubated with serial 1:4 dilutions of the antigenic peptide, from 3 μM. Response was determined by measuring tritiated thymidine uptake by an HT-2 culture to which supernatants of the antigenic stimulation culture (24 hr stimulation period) had been transferred (see, Table 2). The endpoint for half maximal response to Hybrid 1, the antigenic peptide, was about 20 nM. The endpoint for half maximal stimulation with Hybrids 5 and 2 was about 50 pM.
For this assay the following components were added at the same time of the primary culture: (a) The hybrid peptide containing the antigenic epitope (Table I); (b) mitomycin C-treated, MHC class II-positive antigen presenting cells (APC) with the MHC class II allele required for binding of the specific antigenic peptide and its presentation to the antigenic peptide-specific T cell hybridoma; (c) MHC class II allele-restricted T cell hybridoma specific for the antigenic peptide and the MHC class II allele restricting its presentation. At the end of the incubation of this primary culture, an aliquot of its supernatant was transferred into a second culture well for incubation with an interleukin-dependent lymphoblastoid cell line. The degree of stimulation of that second indicator cell by the interleukins which had been released from the activated T cell hybridoma in the primary culture was measured by quantitating tritiated thymidine deoxyribose {[^3H]TdR} uptake into the DNA of the HT-2 indicator cells of that second culture.
The hybrids between Ii-Key core sequence LRMK (SEQ ID NO: 3) and PGCC95-104, pigeon cytochrome C 95-104, IAYLKQATAK (SEQ ID NO: 8) are presented by E^k. The peptides were dissolved in phosphate-buffered saline (PBS; 0.01 M sodium phosphate buffer, pH 7.2, 0.1 M NaCl). The solutions were sterilized by filtration. The TPc9.1 T hybridoma is specific for pigeon cytochrome C 81-104 peptide presented on the murine class II MHC allele E^k. The CH27 B cell lymphoma line which expresses H-2^k alleles was used as the antigen presenting cell.
Antigenic peptide-specific T cell activation was measured by the following procedure. Mitomycin C-treated CH27 cells (A^kE^k) APC were generated by incubating 5.×10^6 cells/mL for 20 min at 37° C. with 0.025 mg/mL of mitomycin C (Sigma) in Dulbecco's Modified Eagle's Medium (DMEM)/10 mM N-2 (hydroxyethylpiperazine-N′[2-ethanesulfonic acid] (HEPES), followed by two washes with four volumes of DMEM-5% fetal calf serum (FCS), 10 mM HEPES. T cell hybridomas were irradiated 2200 rads before each assay.
For the primary culture assay, 5×10^4 mitomycin C-treated APC, 5×10^4 T hybridoma cells and serial 1:4 dilutions from 3 uM of the peptides containing antigenic epitopes were cultured at pH 7.2-7.4, in complete DMEM-5% FCS, 10 mM HEPES, 1× nonessential amino acids (Sigma), 1 mM sodium pyruvate, 2 mM L-glutamine. 100 U/mL penicillin G, 100 μg/mL streptomycin sulfate, 5×10^−5 M 2-mercaptoethanol (2-ME). Wells containing only T hybridoma cells (T)+APC were included to monitor for background T cell activation; and wells containing T+APC+antigenic peptide were included to monitor for non-specific T hybridoma activation by each AE101 series peptide. […]

Like-named read-outs stand apart in the source and are kept apart here. Non-standard residues stand in square brackets, D forms with d. Ava = NCCCCC(=O)O

Take “Ac-LRMK (SEQ ID NO: 3)-5-aminopentanoyl-5-aminopentanoyl-IAYLKQATAK (SEQ ID NO: 8)-NH2 (Ac-LRMK[Ava][Ava]IAYLKQATAK-NH2; SMILES CC[C@H](C)[C@H](NC(=O)CCCCNC(=O)CCCCNC(=O)[C@H](CCCCN)NC(=O)[C@H](CCSC)NC(=O)[C@H](CCCNC(=N)N)NC(=O)[C@H](CC(C)C)NC(C)=O)C(=O)N[C@@H](C)C(=O)N[C@@H](Cc1ccc(O)cc1)C(=O)N[C@@H](CC(C)C)C(=O)N[C@@H](CCCCN)C(=O)N[C@@H](CCC(N)=O)C(=O)N[C@@H](C)C(=O)N[C@H](C(=O)N[C@@H](C)C(=O)N[C@@H](CCCCN)C(N)=O)[C@@H](C)O) [Hybrid 3]”: the “activity of hybrid (in words)” value is “comparable to those with the natural sequence of Ii protein”. For the same substance, the “immunological response to the antigenic epitope (T cell proliferative response)” value (“immunological response” below) (Conc. 0.01 nM) is given as 0.6 thousands of counts per minute. Further, where the note is “Conc. 0.05 nM”, the “immunological response” value is on record as 5.3 thousands of counts per minute. In addition, for the setting “Conc. 0.18 nM”, the “immunological response” value was 21.6 thousands of counts per minute. Moreover, the “immunological response” value (Conc. 0.73 nM) is given as 22.3 thousands of counts per minute. Also, the “immunological response” value (Conc. 3 nM) was 27.9 thousands of counts per minute. The “immunological response” value (Conc. 12 nM) is given as 29.5 thousands of counts per minute. In addition, the “immunological response” value (Conc. 47 nM) is 26.2 thousands of counts per minute. The “immunological response” value (Conc. 188 nM) was 26.2 thousands of counts per minute. Moreover, under “Conc. 750 nM”, the “immunological response” value is recorded as 31.7 thousands of counts per minute. Moreover, under “Conc. 3000 nM”, the “immunological response” value was 31.9 thousands of counts per minute.

For “Ac-LRMK (SEQ ID NO: 3)-5-aminopentanoyl-IAYLKQATAK (SEQ ID NO: 8)-NH2 (Ac-LRMK[Ava]IAYLKQATAK-NH2; SMILES CC[C@H](C)[C@H](NC(=O)CCCCNC(=O)[C@H](CCCCN)NC(=O)[C@H](CCSC)NC(=O)[C@H](CCCNC(=N)N)NC(=O)[C@H](CC(C)C)NC(C)=O)C(=O)N[C@@H](C)C(=O)N[C@@H](Cc1ccc(O)cc1)C(=O)N[C@@H](CC(C)C)C(=O)N[C@@H](CCCCN)C(=O)N[C@@H](CCC(N)=O)C(=O)N[C@@H](C)C(=O)N[C@H](C(=O)N[C@@H](C)C(=O)N[C@@H](CCCCN)C(N)=O)[C@@H](C)O) [Hybrid 2]”, the “activity of hybrid (in words)” value is listed as “comparable to those with the natural sequence of Ii protein”. In addition, the “immunological response” value (Conc. 0.01 nM) is 3.4 thousands of counts per minute. Besides, the “immunological response” value (Conc. 0.05 nM) was 19.8 thousands of counts per minute. For the same substance, the “immunological response” value (Conc. 0.18 nM) is reported as 31.2 thousands of counts per minute. Besides, under “Conc. 0.73 nM”, the “immunological response” value is recorded as 38.8 thousands of counts per minute. In addition, the “immunological response” value (Conc. 3 nM) is 30.1 thousands of counts per minute. Moreover, the “immunological response” value (Conc. 12 nM) is 21.9 thousands of counts per minute. The “immunological response” value (Conc. 47 nM) is on record as 20.8 thousands of counts per minute. Besides, for the setting “Conc. 188 nM”, the “immunological response” value is 27.2 thousands of counts per minute. Further, where the note is “Conc. 750 nM”, the “immunological response” value is 23.9 thousands of counts per minute. Moreover, the “immunological response” value (Conc. 3000 nM) is 25.1 thousands of counts per minute. The EC50 (read-out: endpoint for half maximal stimulation) was around 0.05 nM.

With “Ac-LRMKLPKSAKPVSKIAYLKQATAK-NH2 (SEQ ID NO: 11) [Hybrid 6]”, the “activity of hybrid (in words)” value is recorded as “sub-optimal activity”. The “immunological response” value (Conc. 0.01 nM) is 2.9 thousands of counts per minute. The “immunological response” value (Conc. 0.05 nM) is given as 2.4 thousands of counts per minute. In addition, for the setting “Conc. 0.18 nM”, the “immunological response” value is recorded as 11.9 thousands of counts per minute. Also, the “immunological response” value (Conc. 0.73 nM) was 28.7 thousands of counts per minute. Besides, the “immunological response” value (Conc. 3 nM) is 31.4 thousands of counts per minute. Further, for the setting “Conc. 12 nM”, the “immunological response” value was 39.2 thousands of counts per minute. The “immunological response” value (Conc. 47 nM) is 25.3 thousands of counts per minute. Moreover, the “immunological response” value (Conc. 188 nM) was 26.9 thousands of counts per minute. Under “Conc. 750 nM”, the “immunological response” value was 23.4 thousands of counts per minute. Moreover, under “Conc. 3000 nM”, the “immunological response” value is on record as 21.5 thousands of counts per minute.

“Ac-LRMKLPKSIAYLKQATAK-NH2 (SEQ ID NO: 9) [Hybrid 4]”: the “immunological response” value is, setting by setting: (Conc. 0.01 nM) 2.5 thousands of counts per minute; (Conc. 0.05 nM) 5.8 thousands of counts per minute; (Conc. 0.18 nM) 9.1 thousands of counts per minute; (Conc. 0.73 nM) 19.2 thousands of counts per minute; (Conc. 3 nM) 19.0 thousands of counts per minute; (Conc. 12 nM) 23.1 thousands of counts per minute. The “immunological response” value (Conc. 47 nM) was 19.5 thousands of counts per minute, the “immunological response” value (Conc. 188 nM) was 20.8 thousands of counts per minute, the “immunological response” value (Conc. 750 nM) is 23.3 thousands of counts per minute and the “immunological response” value (Conc. 3000 nM) is listed as 25.2 thousands of counts per minute.

As for “IAYLKQATAK [Hybrid 1, Ac-IAYLKQATAK—NH2 (SEQ ID NO: 8), reference compound]”, the “immunological response” value by setting is: (Conc. 0.01 nM) 0 thousands of counts per minute; (Conc. 0.05 nM) 0 thousands of counts per minute; (Conc. 0.18 nM) 0 thousands of counts per minute; (Conc. 0.73 nM) 4 thousands of counts per minute; (Conc. 3 nM) 0.4 thousands of counts per minute; (Conc. 12 nM) 10.9 thousands of counts per minute. The “immunological response” value reads like this: (Conc. 47 nM) 29.5 thousands of counts per minute; (Conc. 188 nM) 32.4 thousands of counts per minute; (Conc. 750 nM) 27.8 thousands of counts per minute; (Conc. 3000 nM) 25.2 thousands of counts per minute. Under “read-out: endpoint for half maximal response”, the EC50 is around 20 nM.
